Results reported in ChEMBL document CHEMBL5137095, “N-Benzyl Benzamide Derivatives as Selective Sub-Nanomolar Butyrylcholinesterase Inhibitors for Possible Treatment in Advanced Alzheimer's Disease” (J Med Chem, 2022).

How the values were obtained:
BV-2 [1] = experiment: Cytotoxicity against mouse BV-2 cells assessed as reduction in cell viability at 10 uM by MTT assay; format: toxicity, cell-based; conditions: bv-2, 10 µM
[2] = n-octanol-water partition coefficient, log P of the compound by HPLC analysis; format: physicochemical
[3] = Permeability of compound incubated for 18 hrs by PAMPA-BBB assay; format: ADME; conditions: read-out: permeability
HT-22 [4] = experiment: Cytotoxicity against mouse HT-22 cells assessed as reduction in cell viability at 10 uM by MTT assay; format: toxicity, cell-based; conditions: ht-22, 10 µM
PC-12 [5] = experiment: Cytotoxicity against rat PC-12 cells assessed as reduction in cell viability at 10 uM by MTT assay; format: toxicity, cell-based; conditions: pc-12, 10 µM
SH-SY5Y [6] = experiment: Cytotoxicity against human SH-SY5Y cells assessed as reduction in cell viability at 10 uM by MTT assay; format: toxicity, cell-based
[7] = Cytotoxicity against mouse BV-2 cells assessed as cell survival rate at 10 uM by MTT assay; format: toxicity, cell-based; conditions: read-out: Activity
[8] = Cytotoxicity against mouse HT-22 cells assessed as cell survival rate at 10 uM by MTT assay; format: toxicity, cell-based; conditions: read-out: Activity
[9] = Cytotoxicity against rat PC-12 cells assessed as cell survival rate at 10 uM by MTT assay; format: toxicity, cell-based; conditions: read-out: Activity
[10] = Cytotoxicity against human SH-SY5Y cells assessed as cell survival rate at 10 uM by MTT assay; format: toxicity, cell-based; conditions: read-out: Activity
PC-12 [11] = experiment: Neuroprotective activity against H2O2-induced cell damage in rat PC-12 cells assessed as survival rate at 5 to 10 uM pretreated for 2 hrs followed by H2O2 addition and measured after 24 hrs by MTT assay; format: functional; conditions: dose 5-10 µM, time 26 hrs
SH-SY5Y [12] = experiment: Neuroprotective activity against amyloid beta (1 to 42)-induced cell damage in human SH-SY5Y cells assessed as cell survival rate at 25 uM pretreated for 2 hrs followed by amyloid beta (1 to 42) addition and measured after 24 hrs by MTT assay; format: functional; conditions: time 26 hrs
SH-SY5Y [13] = experiment: Neuroprotective activity against amyloid beta (1 to 42)-induced cell damage in human SH-SY5Y cells assessed as cell survival at 2 uM pretreated for 2 hrs followed by amyloid beta (1 to 42) addition and measured after 24 hrs by MTT assay; format: functional; conditions: time 26 hrs, read-out: Activity
SH-SY5Y [14] = experiment: Neuroprotective activity against amyloid beta (1 to 42)-induced cell damage in human SH-SY5Y cells assessed as cell survival at 5 uM pretreated for 2 hrs followed by amyloid beta (1 to 42) addition and measured after 24 hrs by MTT assay; format: functional; conditions: time 26 hrs, read-out: Activity
BV-2 [15] = experiment: Cytotoxicity against mouse BV-2 cells assessed as reduction in cell viability at 20 uM by MTT assay; format: toxicity, cell-based; conditions: bv-2, 20 µM
Cholinesterase [16] = molecular target: T1, Cholinesterase (Homo sapiens, UniProt P06276); experiment: Inhibition of human BChE using acetylthiocholine iodide or butyrylthiocholine iodide as substrate preincubated for 5 mins followed by substrate addition by Ellman's method
T1 sequence (P06276 whole entry): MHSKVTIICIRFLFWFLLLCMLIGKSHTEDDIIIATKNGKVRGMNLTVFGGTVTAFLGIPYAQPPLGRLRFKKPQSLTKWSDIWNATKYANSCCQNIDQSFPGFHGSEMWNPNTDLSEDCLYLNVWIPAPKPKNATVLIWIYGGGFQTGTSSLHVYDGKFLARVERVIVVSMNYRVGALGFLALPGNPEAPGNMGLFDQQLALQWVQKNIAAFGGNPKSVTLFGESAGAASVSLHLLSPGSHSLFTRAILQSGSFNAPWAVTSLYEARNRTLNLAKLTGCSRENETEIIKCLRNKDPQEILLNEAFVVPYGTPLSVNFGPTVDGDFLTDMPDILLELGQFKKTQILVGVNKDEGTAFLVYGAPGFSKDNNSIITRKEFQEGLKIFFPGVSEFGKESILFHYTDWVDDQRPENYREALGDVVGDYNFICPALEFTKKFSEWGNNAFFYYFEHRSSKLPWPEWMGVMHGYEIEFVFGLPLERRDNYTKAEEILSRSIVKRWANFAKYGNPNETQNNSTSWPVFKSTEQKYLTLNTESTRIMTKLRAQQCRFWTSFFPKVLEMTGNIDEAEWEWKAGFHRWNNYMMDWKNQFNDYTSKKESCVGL

Cholinesterase [17] = molecular target: T1, Cholinesterase; experiment: Inhibition of human BChE assessed as inhibition constant
Cholinesterase [18] = molecular target: T1, Cholinesterase; experiment: Binding affinity to human BChE assessed as dissociation constant by surface plasmon resonance assay
HT-22 [19] = experiment: Cytotoxicity against mouse HT-22 cells assessed as reduction in cell viability at 20 uM by MTT assay; format: toxicity, cell-based; conditions: ht-22, 20 µM
PC-12 [20] = experiment: Cytotoxicity against rat PC-12 cells assessed as reduction in cell viability at 20 uM by MTT assay; format: toxicity, cell-based; conditions: pc-12, 20 µM
SH-SY5Y [21] = experiment: Cytotoxicity against human SH-SY5Y cells assessed as reduction in cell viability at 20 uM by MTT assay; format: toxicity, cell-based
[22] = Acute toxicity in ICR mouse assessed as death at 1000 mg/kg, po measured after 4 hrs; format: organism-based; conditions: in vivo
[23] = Acute toxicity in ICR mouse assessed as effect on consumption of water and food at 1000 mg/kg, po measured after 14 days; format: organism-based; conditions: in vivo, 336 h, time 14 day
[24] = Acute toxicity in ICR mouse assessed as increase in body weight at 1000 mg/kg, po measured after 14 days; format: organism-based; conditions: in vivo, 336 h, time 14 day
[25] = Elimination half life in Sprague-Dawley rat at 10 mg/kg, IG measured after 48 hrs by LC-MS analysis; format: ADME, organism-based; conditions: in vivo, po, read-out: beta t1/2 (converted)
[26] = Elimination half life in Sprague-Dawley rat at 10 mg/kg, iv measured after 48 hrs by LC-MS analysis; format: ADME, organism-based; conditions: in vivo, read-out: beta t1/2 (converted)
[27] = Tmax in Sprague-Dawley rat at 10 mg/kg, IG measured after 48 hrs by LC-MS analysis; format: ADME, organism-based; conditions: in vivo, po
[28] = Tmax in Sprague-Dawley rat at 10 mg/kg, iv measured after 48 hrs by LC-MS analysis; format: ADME, organism-based; conditions: in vivo
[29] = Cmax in Sprague-Dawley rat at 10 mg/kg, IG measured after 48 hrs by LC-MS analysis; format: ADME, organism-based; set-up: time 48 hrs, dose 10 mg/kg, route ig; conditions: in vivo, po
[30] = Cmax in Sprague-Dawley rat at 10 mg/kg, iv measured after 48 hrs by LC-MS analysis; format: ADME, organism-based; set-up: dose 10 mg/kg, time 48 hrs, route iv; conditions: in vivo
[31] = AUC (0 to infinitive) in Sprague-Dawley rat at 10 mg/kg, IG measured after 48 hrs by LC-MS analysis; format: ADME, organism-based; set-up: dose 10 mg/kg, time 48 hrs, route ig; conditions: in vivo, po
[32] = AUC (0 to infinitive) in Sprague-Dawley rat at 10 mg/kg, iv measured after 48 hrs by LC-MS analysis; format: ADME, organism-based; set-up: time 48 hrs, dose 10 mg/kg, route iv; conditions: in vivo
[33] = Oral bioavailability in Sprague-Dawley rat at 10 mg/kg measured after 48 hrs by LC-MS analysis; format: ADME, organism-based; conditions: in vivo
[34] = Microsomal stability in human liver microsomes assessed as half life measured after 120 mins; format: ADME, Microsome
[35] = Plasma concentration in ICR mouse at 10 mg/kg, po measured at 0.25 hrs by LC-MS analysis; format: ADME, organism-based
[36] = Plasma concentration in ICR mouse at 10 mg/kg, IG measured at 0.5 hrs by LC-MS analysis; format: ADME, organism-based; conditions: po
[37] = Plasma concentration in ICR mouse at 10 mg/kg, po measured at 1 hr by LC-MS analysis; format: ADME, organism-based
[38] = Plasma concentration in ICR mouse at 10 mg/kg, IG measured at 2 hrs by LC-MS analysis; format: ADME, organism-based; conditions: po
[39] = Plasma concentration in ICR mouse at 10 mg/kg, IG measured at 4 hrs by LC-MS analysis; format: ADME, organism-based; conditions: po
[40] = Plasma concentration in ICR mouse at 10 mg/kg, IG measured at 6 hrs by LC-MS analysis; format: ADME, organism-based; conditions: po
[41] = Brain concentration in ICR mouse at 10 mg/kg, IG measured at 0.25 hrs by LC-MS analysis; format: ADME, organism-based; conditions: po, read-out: Ct
[42] = Brain concentration in ICR mouse at 10 mg/kg, IG measured at 0.5 hrs by LC-MS analysis; format: ADME, organism-based; conditions: po, read-out: Ct
[43] = Brain concentration in ICR mouse at 10 mg/kg, IG measured at 1 hr by LC-MS analysis; format: ADME, organism-based; conditions: po, read-out: Ct
[44] = Brain concentration in ICR mouse at 10 mg/kg, IG measured at 2 hrs by LC-MS analysis; format: ADME, organism-based; conditions: po, read-out: Ct
[45] = Brain concentration in ICR mouse at 10 mg/kg, IG measured at 4 hrs by LC-MS analysis; format: ADME, organism-based; conditions: po, read-out: Ct
[46] = Brain concentration in ICR mouse at 10 mg/kg, IG measured at 6 hrs by LC-MS analysis; format: ADME, organism-based; conditions: po, read-out: Ct
Cholinesterase [47] = molecular target: Cholinesterase (Equus caballus, UniProt P81908); experiment: Inhibition of horse serum BChE using acetylthiocholine iodide or butyrylthiocholine iodide as substrate preincubated for 5 mins followed by substrate addition by Ellman's method
Cholinesterase (Equus caballus, UniProt P81908), sequence (P81908 whole entry): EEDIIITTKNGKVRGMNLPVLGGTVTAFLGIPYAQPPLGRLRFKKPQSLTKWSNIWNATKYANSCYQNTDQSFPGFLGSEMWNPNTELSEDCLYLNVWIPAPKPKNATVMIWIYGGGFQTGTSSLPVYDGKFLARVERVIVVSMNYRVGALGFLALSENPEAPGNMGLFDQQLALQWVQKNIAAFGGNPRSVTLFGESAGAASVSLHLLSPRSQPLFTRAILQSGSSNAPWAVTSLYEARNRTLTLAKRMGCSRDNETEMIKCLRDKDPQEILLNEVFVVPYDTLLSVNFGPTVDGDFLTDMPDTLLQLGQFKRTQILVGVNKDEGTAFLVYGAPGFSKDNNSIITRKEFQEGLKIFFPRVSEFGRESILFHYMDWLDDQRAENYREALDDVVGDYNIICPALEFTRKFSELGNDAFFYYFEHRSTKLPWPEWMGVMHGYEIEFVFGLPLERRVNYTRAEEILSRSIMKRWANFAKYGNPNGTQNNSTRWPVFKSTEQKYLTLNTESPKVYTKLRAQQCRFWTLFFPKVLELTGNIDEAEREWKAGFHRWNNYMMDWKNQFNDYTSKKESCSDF

SH-SY5Y [48] = experiment: Neuroprotective activity against GA-induced cell damage in human SH-SY5Y cells assessed as survival rate at 5 uM pretreated for 2 hrs followed by GA addition and measured after 24 hrs by MTT assay; format: functional
[49] = Acute toxicity in ICR mouse assessed as abnormal behavior at 1000 mg/kg, po measured after 4 hrs; format: organism-based; conditions: in vivo

CN(C)Cc1ccccc1CNC(=O)c1cccc(NC(=O)c2cccs2)c1
Activity (BV-2 [1]): Non-Toxic | logP [2]: 1.93 | Papp at 18 h [3]: 68.2 nm/s | Activity (HT-22 [4]): Non-Toxic | Activity (PC-12 [5]): Non-Toxic | Activity (SH-SY5Y [6]): Non-Toxic | viability at 10 µM [7]: > 70% | viability at 10 µM [8]: > 70% | viability at 10 µM [9]: > 70% | viability at 10 µM [10]: > 70% | Activity (PC-12 [11]): 61.7% | Activity (SH-SY5Y [12]): 64.12% | viability at 2 µM (SH-SY5Y [13]): 82.6% | viability at 5 µM (SH-SY5Y [14]): 68%

CCN(CC)Cc1ccccc1CNC(=O)c1cccc(NC(=O)c2ccc(F)cc2)c1
Activity (BV-2 [15]): Non-Toxic | Activity (BV-2 [1]): Non-Toxic | IC50 (Cholinesterase [16]): 0.08 nM | Ki (Cholinesterase [17]): 0.61 nM | Kd (Cholinesterase [18]): 0.37 nM | logP [2]: 1.7 | Papp at 18 h [3]: 102 nm/s | Activity (HT-22 [4]): Non-Toxic | Activity (PC-12 [5]): Non-Toxic | Activity (SH-SY5Y [6]): Non-Toxic | viability at 10 µM [7]: > 70% | viability at 10 µM [8]: > 70% | viability at 10 µM [9]: > 70% | viability at 10 µM [10]: > 70% | Activity (HT-22 [19]): Non-Toxic | Activity (PC-12 [20]): Non-Toxic | Activity (SH-SY5Y [21]): Non-Toxic | Activity (PC-12 [11]): 61.7% | Activity (SH-SY5Y [12]): 64.12% | viability at 2 µM (SH-SY5Y [13]): 68% | Activity [22]: Non-Toxic | Activity [23]: Non-Toxic | Activity [24]: Non-Toxic | half-life [25]: 28.1 h | half-life [26]: 17.2 h | Tmax [27]: 0.63 h | Tmax [28]: 6 min | Cmax [29]: 0.0364 µg/mL | Cmax [30]: 1.64 µg/mL | AUC(0-inf) [31]: 0.497 µg·h/mL | AUC(0-inf) [32]: 2.17 µg·h/mL | bioavailability [33]: 21.7% | half-life [34]: 1.55 h | concentration at 0.25 h [35]: 0.0257 µg/mL | concentration at 0.5 h [36]: 0.0302 µg/mL | concentration at 1 h [37]: 0.0209 µg/mL | concentration at 2 h [38]: 0.0184 µg/mL | concentration at 4 h [39]: 0.0174 µg/mL | concentration at 6 h [40]: 0.00295 µg/mL | concentration at 0.25 h [41]: 25.4 ng/g | concentration at 0.5 h [42]: 26.8 ng/g | concentration at 1 h [43]: 37.5 ng/g | concentration at 2 h [44]: 17.7 ng/g | concentration at 4 h [45]: 16.4 ng/g | concentration at 6 h [46]: 15.3 ng/g

CCN(CC)Cc1ccccc1CNC(=O)c1cc(Br)cc(NC(=O)c2ccc(F)cc2)c1
IC50 (Cholinesterase [47]): 0.42 nM | IC50 (Cholinesterase [16]): 0.58 nM | logP [2]: 2.04 | Papp at 18 h [3]: 69.3 nm/s | Activity (SH-SY5Y [48]): 70%

CCN(CC)Cc1ccccc1CNC(=O)c1cc(C)cc(NC(=O)c2ccc(F)cc2)c1
IC50 (Cholinesterase [47]): 0.021 nM | IC50 (Cholinesterase [16]): 0.039 nM | Ki (Cholinesterase [17]): 0.094 nM | Kd (Cholinesterase [18]): 0.064 nM | logP [2]: 1.26 | Papp at 18 h [3]: 91.7 nm/s | Activity [49]: Non-Toxic | Activity [23]: Non-Toxic | Activity [24]: Non-Toxic
